Test system: spontaneous SWDs of Long-Evans rats
Experiment: In vivo anti-epileptic therapy, spontaneous spike-wave discharges (SWDs)
Set-up: species or system rat
Conditions: before and after application, ESM 28 mg/Kg i.p., ESM-SAIO and ESM-device 40 mg/Kg (FIG. 12)
Description: Adult male Long-Evans and Wistar rats were used in this study. All rats were kept in a sound-attenuated room under a 12:12 hr light-dark cycle (07:00-19:00 lights on) with food and water provided ad libitum. The experimental procedures were reviewed and approved by the Institutional Animal Care and Use Committee. Briefly, the recording electrodes were implanted under pentobarbital anesthesia (60 mg/kg, i.p.). Subsequently, the rat was placed in a standard stereotaxic apparatus. In total, six stainless steel screws were driven bilaterally into the skull overlying the frontal (A +2.0, L 2.0 with reference to the bregma) and occipital (A −6.0, L 2.0) regions of the cortex to record cortical field potentials. A ground electrode was implanted 2 mm caudal to lambda. Dental cement was applied to fasten the connection socket to the surface of the skull. Following suturing to complete the surgery, animals were given an antibiotic (chlortetracycline) and housed individually in cages for recovery. […] To confirm the cortical focus theory of SWDs, a pharmacological epileptic rat model, low-dose pentylenetetrazol (PTZ) (20 mg/kg, i.p.) in Wistar rats, was also used. […] In this experiment, 1-hour spontaneous brain activity before the treatment (baseline) and another 1-hour spontaneous brain activity 30 minutes after the treatment were recorded, respectively. […]

## CCC1(C)CC(=O)NC1=O (centres unmarked) [ESM, ethosuximide]
  SWD number: significantly reduced
  total SWD duration: significantly reduced

Reference: patent US20110014296A1, “Drug Delivery Nanodevice, its Preparation Method and Uses Thereof” (NATIONAL CHIAO TUNG UNIVERSITY, priority 2009, published 2011)
